Laboratory results reported in patent US6114334A, “Piperazine derivatives as therapeutic agents” (Knoll Aktiengesellschaft, priority 1995, dated 2000).
Where a name gives a salt, the structure may show the parent alone.

Key:
[1] = molecular target: T1, 5-HT1A receptors (Rattus norvegicus, UniProt P19327); assay: inhibition of [3H]8-OH-DPAT binding to 5-HT1A receptors in vitro; set-up: species or system rat (male Sprague-Dawley, hippocampal tissue); conditions: rat hippocampus; for Ki: [3H]8-OH-DPAT 2 nM, 25° C., 30 min; for inhibition at 1 µM: 10^-6 M, [3H]8-OH-DPAT, read-out: % displacement at 10^-6 M, 5-HT1A
T1 sequence (P19327 1-422): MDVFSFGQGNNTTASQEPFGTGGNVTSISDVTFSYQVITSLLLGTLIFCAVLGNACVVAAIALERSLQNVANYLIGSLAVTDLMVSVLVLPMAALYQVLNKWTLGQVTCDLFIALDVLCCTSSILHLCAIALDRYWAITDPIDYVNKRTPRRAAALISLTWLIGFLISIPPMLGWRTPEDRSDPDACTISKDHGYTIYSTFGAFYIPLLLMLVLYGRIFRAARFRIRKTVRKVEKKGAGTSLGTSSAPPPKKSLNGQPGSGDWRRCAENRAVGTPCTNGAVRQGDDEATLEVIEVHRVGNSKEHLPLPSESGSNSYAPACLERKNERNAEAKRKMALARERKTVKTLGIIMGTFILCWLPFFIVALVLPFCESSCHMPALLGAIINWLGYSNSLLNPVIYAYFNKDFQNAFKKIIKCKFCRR

[2] = molecular target: T2, α2D-adrenoceptors (Rattus norvegicus, UniProt P22909); assay: inhibition of tritiated idazoxan binding to α2D-adrenoceptors in vitro; set-up: species or system rat (male Charles River CD, frontal cortical tissue); conditions: rat frontal cortex; for Ki: [3H]idazoxan 1 nM, 0° C., 75 min; for inhibition at 1 µM: 10^-6 M, [3H]idazoxan, read-out: % displacement at 10^-6 M, α2D
T2 sequence (P22909 1-465): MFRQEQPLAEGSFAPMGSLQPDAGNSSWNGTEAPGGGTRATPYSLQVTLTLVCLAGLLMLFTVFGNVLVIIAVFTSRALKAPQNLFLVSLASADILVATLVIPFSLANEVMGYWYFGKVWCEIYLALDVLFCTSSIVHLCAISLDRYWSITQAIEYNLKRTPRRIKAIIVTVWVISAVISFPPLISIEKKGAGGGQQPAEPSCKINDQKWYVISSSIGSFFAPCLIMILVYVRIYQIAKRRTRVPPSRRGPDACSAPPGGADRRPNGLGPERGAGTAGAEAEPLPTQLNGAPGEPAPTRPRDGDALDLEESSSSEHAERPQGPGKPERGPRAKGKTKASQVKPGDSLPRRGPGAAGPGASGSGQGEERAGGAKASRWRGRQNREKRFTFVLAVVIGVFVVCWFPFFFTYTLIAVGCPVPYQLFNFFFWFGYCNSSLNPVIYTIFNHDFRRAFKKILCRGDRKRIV

[3] = molecular target: α1-adrenoceptors; assay: inhibition of 7-methoxy-[3H]prazosin binding to α1-adrenoceptors in vitro; set-up: species or system rat (male Charles River CD, whole cortical tissue); conditions: rat whole cortex, 30 min; for Ki: 7-methoxy-[3H]prazosin 0.1 nM, 30° C.; for % displacement at 10^-6 M, α1: 7-methoxy-[3H]prazosin, 1 µM
Protocol: Whole cortical tissue from the brains of male Charles River CD rats weighing between 150-250 g were homogenised in ice-cold 50 mM Tris-HCl, pH 7.6 (at 25° C.; 1:40 w/v) and centrifuged at 1000 g at 4° C. for 10 minutes. The supernatant was centrifuged at 30,000 g at 4° C. for 10 minutes. The pellet was rehomogenised in 50 mM Tris-HCl, pH 7.6 (1:40 w/v) and centrifuged at 30,000 g at 4° C. for 10 minutes. The final pellet was resuspended in 50 mM Tris-HCl, pH 7.6 (equivalent to 12.5 mg wet weight of tissue/ml) and used immediately in the binding assay. Aliquots (400 μl; equivalent to 5 mg wet weight of tissue/tube) of this suspension were added to tubes containing the ligand (50 μl; 0.1 nM) and distilled water (50 μl; total binding) or phentolamine (50 μl; 5 μM; non-specific binding) or test compound (50 μl; at a single concentration of 10^-6 M or at 10 concentrations ranging from 10^-11 -10^-3 M). The ligand was 7-methoxy-[^3 H]prazosin and the mixture was incubated at 30° C. for 30 minutes before the incubation was terminated by rapid filtration. The filters were washed with ice-cold Tris-HCl buffer and dried. The filters were punched out into vials, scintillation fluid added and radioactivity determined by liquid scintillation counting. The percentage displacement of specific binding of the tritiated ligand was calculated for the single concentration (10^-6 M) of test compound. […] The concentration which gave 50% inhibition of specific binding (IC50) was obtained from the curve. The inhibition coefficient Ki was then calculated using the formula [formula] in which [ligand] is the concentration of the tritiated ligand used and KD is the equilibrium dissociation constant for the ligand.

[4] = molecular target: D2 dopamine receptors (Rattus norvegicus, UniProt P61169); assay: inhibition of tritiated (S)-sulpiride binding to D2 dopamine receptors in vitro; set-up: species or system rat (male Charles River CD, striatal tissue); conditions: rat striatum, tritiated (S)-sulpiride 1 nM, 4° C., 40 min
Sequence of D2 dopamine receptors (P61169 whole entry): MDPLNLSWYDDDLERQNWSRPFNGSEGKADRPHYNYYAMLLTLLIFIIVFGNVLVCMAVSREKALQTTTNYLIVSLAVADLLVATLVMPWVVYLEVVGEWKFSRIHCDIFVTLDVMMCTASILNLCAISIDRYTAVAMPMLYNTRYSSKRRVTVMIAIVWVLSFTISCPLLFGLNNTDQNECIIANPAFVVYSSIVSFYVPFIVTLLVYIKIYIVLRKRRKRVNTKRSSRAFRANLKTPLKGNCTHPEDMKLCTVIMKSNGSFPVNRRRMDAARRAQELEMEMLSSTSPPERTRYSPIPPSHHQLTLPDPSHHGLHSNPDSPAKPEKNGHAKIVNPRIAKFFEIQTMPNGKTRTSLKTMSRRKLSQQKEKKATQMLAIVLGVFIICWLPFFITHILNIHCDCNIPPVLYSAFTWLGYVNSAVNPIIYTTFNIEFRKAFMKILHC

Row | Compound | Ki [1] [nM] | Ki [2] [nM] | Ki [3] [nM] | Ki [4] [nM] | inhibition at 1 µM [2] [%] | inhibition at 1 µM [1] [%] | % displacement at 10^-6 M, α1 [3] [%]
1 | C=CCn1c(-c2cccs2)nn(CN2CCN(c3ccccc3OC)CC2)c1=S [Example 60, 4-Allyl-2-[4-(2-methoxyphenyl)piperazin-1-ylmethyl]-5-(2-thienyl)-1,2,4-triazole-3(2H,4H)-thione] | 138 | 82 | 159 | 155 | – | – | –
2 | COc1ccccc1N1CCN(Cc2c(N)n(C)n(-c3ccccc3)c2=O)CC1 [Example 1, 3-amino-4-[4-(2-methoxyphenyl)piperazin-1-ylmethyl]-2-methyl-1-phenyl-3-pyrazolin-5-one] | 169 | 130 | 23 | 192 | – | – | –
3 | C=CCn1c(-c2cccnc2)nn(CN2CCN(c3ncccn3)CC2)c1=S [Example 57, 4-Allyl-5-(3-pyridyl)-2-[4-(pyrimidin-2-yl)piperazin-1-ylmethyl]-1,2,4-triazole-3(2H,4H)-thione] | > 500 | – | > 500 | > 500 | 95 | – | –
4 | COc1ccccc1N1CCN(Cn2nc(-c3ccncc3)n(C)c2=S)CC1 [Example 51, 2-[4-(2-Methoxyphenyl)piperazin-1-ylmethyl]-4-methyl-5-(4-pyridyl)-1,2,4-triazole-3(2H,4H)-thione] | – | > 500 | – | 134 | – | 54 | 53
5 | C=CCn1c(-c2cccnc2)nn(CCN2CCN(c3cccc(C)c3C)CC2)c1=O [Example 65, 4-Allyl-2-{2-[4-(2,3-dimethylphenyl)piperazin-1-yl]ethyl}-5-(3-pyridyl)-1,2,4-triazol-3(2H,4H)-one 2.8 hydrochloride] | – | > 500 | – | > 500 | – | 63 | 56
6 | C=CCn1c(-c2ccccn2)nn(CN2CCN(c3ccccc3OC)CC2)c1=S [Example 58, 4-Allyl-2-[4-(2-methoxyphenyl)piperazin-1-ylmethyl]-5-(2-pyridyl)-1,2,4-triazole-3(2H,4H)-thione] | 126 | 104 | 301 | 173 | – | – | –
7 | C=CCn1c(C)nn(CCN2CCN(c3ccccc3OC)CC2)c1=O [Example 70, 4-Allyl-2-{2-[4-(2-methoxyphenyl)piperazin-1-yl]ethyl}-5-methyl-1,2,4-triazol-3(2H,4H)-one] | – | > 500 | – | 310 | – | 69 | 64
8 | C=CCn1c(-c2ccccc2)nn(CCN2CCN(c3ccccc3OC)CC2)c1=O.O=C(O)/C=C/C(=O)O [Example 68, 4-Allyl-2-{2-[4-(2-methoxyphenyl)piperazin-1-yl]ethyl}-5-phenyl-1,2,4-triazol-3(2H,4H)-one monofumarate] | – | > 500 | – | > 500 | – | 56 | 67
9 | C=CCn1c(-c2cccnc2)nn(CN2CCN(c3ccccc3OC)CC2)c1=O [Example 63, 4-Allyl-2-[4-(2-methoxyphenyl)piperazin-1-ylmethyl]-5-(3-pyridyl)-1,2,4-triazol-3(2H,4H)-one] | – | – | > 500 | 193 | 66 | 74 | –
10 | C=CCn1c(-c2cccnc2)nn(CCN2CCN(c3ccccc3C)CC2)c1=O [Example 71, 4-Allyl-2-{2-[4-(2-methylphenyl)piperazin-1-yl]ethyl}-5-(3-pyridyl)-1,2,4-triazol-3(2H,4H)-one] | > 500 | > 500 | – | > 500 | – | – | 56
11 | C=CCn1c(-c2cccnc2)nn(CN2CCN(c3ccccc3OC)CC2)c1=S [Example 47, 4-Allyl-2-[4-(2-methoxyphenyl)piperazin-1-ylmethyl]-5-(3-pyridyl)-1,2,4-triazole-3(2H,4H)-thione] | 152 | 178 | > 500 | 262 | – | – | –
12 | C=CCn1c(-c2cccs2)nn(CCN2CCN(c3ccccc3OC)CC2)c1=O [Example 69, 4-Allyl-2-{2-[4-(2-methoxyphenyl)piperazin-1-yl]ethyl}-5-(2-thienyl)-1,2,4-triazol-3(2H,4H)-one] | – | > 500 | – | > 500 | – | 70 | 93
13 | C=CCn1c(C)nn(CN2CCN(c3ccccc3OC)CC2)c1=S [Example 59, 4-Allyl-2-[4-(2-methoxyphenyl)piperazin-1-ylmethyl]-5-methyl-1,2,4-triazole-3(2H,4H)-thione] | 119 | 255 | 497 | 306 | – | – | –
